Test results taken from US12590091B2, “1H-pyrrolo[3,2-C]pyridine and 1H-pyrrolo[2,3-C]pyridine derivatives as TLR9 inhibitors for the treatment of fibrosis” (BRISTOL-MYERS SQUIBB COMPANY, priority 2020, dated 2026).

Key:
human TLR9 = molecular target: T1, human TLR9 (Homo sapiens, UniProt Q9NR96); experiment: TLR9 inhibition reporter assay (HEK-Blue cells, SEAP reporter); format: cell-based; settings: HEK-Blue cells overexpressing human TLR9, stimulated with ODN2006 5 nM, 22 hour incubation
T1 construct: host or cells: HEK-Blue cells
T1 sequence (Q9NR96 26-1032): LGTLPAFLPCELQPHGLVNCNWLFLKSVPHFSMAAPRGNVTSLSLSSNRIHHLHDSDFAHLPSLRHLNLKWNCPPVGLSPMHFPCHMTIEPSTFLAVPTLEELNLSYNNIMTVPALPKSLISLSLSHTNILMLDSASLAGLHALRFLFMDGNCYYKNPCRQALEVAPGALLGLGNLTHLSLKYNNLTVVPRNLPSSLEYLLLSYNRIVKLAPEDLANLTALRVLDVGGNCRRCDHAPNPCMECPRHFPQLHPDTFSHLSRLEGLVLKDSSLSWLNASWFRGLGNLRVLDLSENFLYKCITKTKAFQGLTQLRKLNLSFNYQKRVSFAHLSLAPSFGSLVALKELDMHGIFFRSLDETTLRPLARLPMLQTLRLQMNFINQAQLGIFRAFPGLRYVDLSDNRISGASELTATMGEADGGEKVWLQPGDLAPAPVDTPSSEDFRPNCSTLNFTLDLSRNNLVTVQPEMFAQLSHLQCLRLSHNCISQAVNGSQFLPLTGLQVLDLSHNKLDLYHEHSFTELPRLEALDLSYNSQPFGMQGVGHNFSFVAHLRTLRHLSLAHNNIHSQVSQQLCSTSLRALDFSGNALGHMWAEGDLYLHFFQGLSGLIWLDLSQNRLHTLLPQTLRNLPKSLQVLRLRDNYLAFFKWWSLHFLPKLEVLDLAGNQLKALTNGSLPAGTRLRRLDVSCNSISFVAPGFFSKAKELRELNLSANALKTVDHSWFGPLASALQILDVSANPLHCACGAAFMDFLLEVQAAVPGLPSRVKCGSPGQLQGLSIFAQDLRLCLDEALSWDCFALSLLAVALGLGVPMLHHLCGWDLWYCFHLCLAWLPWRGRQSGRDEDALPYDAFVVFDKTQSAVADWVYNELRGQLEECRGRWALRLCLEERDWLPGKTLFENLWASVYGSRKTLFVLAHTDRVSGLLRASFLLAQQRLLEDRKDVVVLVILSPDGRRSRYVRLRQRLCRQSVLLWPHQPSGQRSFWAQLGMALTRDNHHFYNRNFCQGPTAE
In short: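 HEK-Blue cells overexpressing human TLR9 (25,000 cells/well), NF-κB/AP-1-driven SEAP reporter. Compounds at 0.05 nM–50 μM final, 22 h at 37 °C, 5% CO2 with agonist. SEAP detected with HEK-Blue Detection medium; % inhibition versus agonist plus DMSO and known-inhibitor wells.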

human TLR7 = molecular target: T2, human TLR7 (Homo sapiens, UniProt Q9NYK1); experiment: TLR7 inhibition reporter assay (HEK-Blue cells, SEAP reporter); format: cell-based; settings: HEK-Blue cells overexpressing human TLR7, stimulated with gardiquimod 7.5 μM, 22 hour incubation
T2 construct: host or cells: HEK-Blue cells
T2 sequence (Q9NYK1 27-1049): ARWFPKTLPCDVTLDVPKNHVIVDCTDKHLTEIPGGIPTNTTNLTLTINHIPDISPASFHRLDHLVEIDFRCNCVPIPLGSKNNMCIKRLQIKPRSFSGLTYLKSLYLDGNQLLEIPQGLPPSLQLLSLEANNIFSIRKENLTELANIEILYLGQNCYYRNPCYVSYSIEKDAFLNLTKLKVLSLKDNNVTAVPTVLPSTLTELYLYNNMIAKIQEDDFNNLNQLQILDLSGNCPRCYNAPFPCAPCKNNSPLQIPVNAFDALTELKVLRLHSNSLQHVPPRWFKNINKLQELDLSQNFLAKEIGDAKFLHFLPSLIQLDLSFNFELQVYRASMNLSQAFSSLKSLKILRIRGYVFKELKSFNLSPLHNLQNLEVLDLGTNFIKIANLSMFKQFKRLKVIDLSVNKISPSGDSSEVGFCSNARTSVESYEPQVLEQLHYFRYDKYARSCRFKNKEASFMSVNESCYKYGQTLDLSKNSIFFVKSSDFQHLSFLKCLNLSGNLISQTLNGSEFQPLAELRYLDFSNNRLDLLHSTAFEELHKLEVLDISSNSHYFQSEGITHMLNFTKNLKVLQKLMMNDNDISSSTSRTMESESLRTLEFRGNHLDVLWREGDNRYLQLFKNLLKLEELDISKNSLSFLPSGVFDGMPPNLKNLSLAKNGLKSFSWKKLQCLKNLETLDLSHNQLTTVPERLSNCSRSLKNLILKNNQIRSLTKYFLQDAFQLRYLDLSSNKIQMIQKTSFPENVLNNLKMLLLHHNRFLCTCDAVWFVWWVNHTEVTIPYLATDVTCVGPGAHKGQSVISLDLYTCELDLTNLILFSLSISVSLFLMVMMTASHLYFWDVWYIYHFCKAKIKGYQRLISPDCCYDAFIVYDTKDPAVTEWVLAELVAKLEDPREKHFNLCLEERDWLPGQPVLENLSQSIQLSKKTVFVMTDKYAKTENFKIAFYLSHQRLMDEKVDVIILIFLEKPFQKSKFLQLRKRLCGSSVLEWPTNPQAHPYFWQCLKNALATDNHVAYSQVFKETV
In short: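 Agonists used: gardiquimod 7.5 μM (TLR7), R848 15.9 μM (TLR8), ODN2006 5 nM (TLR9), added after 30 min room-temperature compound pre-treatment (0.05 nM–50 μM) of receptor-overexpressing HEK-Blue cells. SEAP reporter (NF-κB/AP-1 driven) read after 22 h at 37 °C; inhibition scaled between agonist+DMSO and reference-inhibitor wells.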

SMILES | IC50 (human TLR9) [nM] | IC50 (human TLR7) [nM]
Cc1nc(-c2cc(F)c(N3CCNCC3)cc2F)cc2c1cc(-c1ccc(S(C)(=O)=O)cc1)n2C [Example 43, 6-(2,5-Difluoro-4-(piperazin-1-yl)phenyl)-1,4-dimethyl-2-(4-(methylsulfonyl)phenyl)-1H-pyrrolo[3,2-c]pyridine] | 79 | 6200
COc1ccc(-c2c(C)[nH]c3cnc(C4CCN(C5CCN(C(=O)OCc6ccccc6)CC5)CC4)cc23)cc1OC [Example 4, Benzyl 4-(3-(3,4-dimethoxyphenyl)-2-methyl-1H-pyrrolo[2,3-c]pyridin-5-yl)-[1,4′-bipiperidine]-1′-carboxylate] | 243 | 9500
COc1ccc(-c2cc3cnc(C4CCN(Cc5ccc(C(F)(F)F)nc5)CC4)cc3n2C)cc1OC [Example 28, 2-(3,4-dimethoxyphenyl)-1-methyl-6-(1-((6-(trifluoromethyl)pyridin-3-yl)methyl)piperidin-4-yl)-1H-pyrrolo[3,2-c]pyridine] | 269 | > 50000
Cc1nc(-c2ccc(N3CCN(C4CCOC4)CC3)c(F)c2)cc2c1cc(-c1ccc(S(C)(=O)=O)cc1)n2C (stereo not shown) [Example 70, 6-(3-fluoro-4-(4-(tetrahydrofuran-3-yl)piperazin-1-yl)phenyl)-1,4-dimethyl-2-(4-(methylsulfonyl)phenyl)-1H-pyrrolo[3,2-c]pyridine] | 260 | > 25000
COc1ccc(-c2c(C)[nH]c3cnc(C4CCN(C(=O)CN5CCCCC5)CC4)cc23)cc1OC [Example 16, 1-(4-(3-(3,4-dimethoxyphenyl)-2-methyl-1H-pyrrolo[2,3-c]pyridin-5-yl)piperidin-1-yl)-2-(piperidin-1-yl)ethan-1-one] | 84 | 5700
Cc1nc(-c2ccc(C3(O)CC4CCC(C3)N4C)c(F)c2)cc2c1cc(-c1ccc(S(C)(=O)=O)cc1)n2C [Example 102, (1R,3r,5S)-3-(4-(1,4-dimethyl-2-(4-(methylsulfonyl)phenyl)-1H-pyrrolo[3,2-c]pyridin-6-yl)-2-fluorophenyl)-8-methyl-8-azabicyclo[3.2.1]octan-3-ol] | 127 | 5500
Cc1nc(-c2ccc(CN3CCN(CC(C)(C)O)CC3)cc2)cc2c1cc(-c1ccc(S(C)(=O)=O)cc1)n2C [Example 44, 1-(4-(4-(1,4-Dimethyl-2-(4-(methylsulfonyl)phenyl)-1H-pyrrolo[3,2-c]pyridin-6-yl)benzyl)piperazin-1-yl)-2-methylpropan-2-ol] | 96 | 640
Cc1nc(-c2ccc(CN3CCN(CC(C)(C)O)CC3)cc2)cc2c1cc(-c1ccc(S(C)(=O)=O)cc1)n2C(F)F [Example 124, 1-(4-(4-(1-(difluoromethyl)-4-methyl-2-(4-(methylsulfonyl)phenyl)-1H-pyrrolo[3,2-c]pyridin-6-yl)benzyl)piperazin-1-yl)-2-methylpropan-2-ol] | 451 | > 50000

Stronger by IC50 (human TLR9), values ahead:

IC50 (human TLR9) [nM] | IC50 (human TLR7) [nM] | SMILES
59 | 3200 | COc1ccc(-c2cc3cnc(-c4ccc(N5CCN(C(C)C)CC5)cc4)cc3n2C)cc1OC [Example 24, 2-(3,4-dimethoxyphenyl)-6-(4-(4-isopropylpiperazin-1-yl)phenyl)-1-methyl-1H-pyrrolo[3,2-c]pyridine]
58 | 1600 | COCCN1C2CCC1CN(c1ccc(-c3cc4c(cc(-c5ccc(S(C)(=O)=O)cc5)n4C)c(C)n3)cc1)C2 [Example 74, 6-(4-(8-(2-methoxyethyl)-3,8-diazabicyclo[3.2.1]octan-3-yl)phenyl)-1,4-dimethyl-2-(4-(methylsulfonyl)phenyl)-1H-pyrrolo[3,2-c]pyridine]
46 | 6000 | Cc1nc(-c2ccc(CN3CCN(CC(C)C)CC3)cc2)cc2c1cc(-c1ccc(S(C)(=O)=O)cc1)n2C [Example 57, 6-(4-((4-isobutylpiperazin-1-yl)methyl)phenyl)-1,4-dimethyl-2-(4-(methylsulfonyl)phenyl)-1H-pyrrolo[3,2-c]pyridine]
35 | 2700 | Cc1nc(-c2cc(F)c(N3CC4CCC(C3)N4CCCO)cc2F)cc2c1cc(-c1ccc(S(C)(=O)=O)cc1)n2C [Example 79, 3-(3-(4-(1,4-dimethyl-2-(4-(methylsulfonyl)phenyl)-1H-pyrrolo[3,2-c]pyridin-6-yl)-2,5-difluorophenyl)-3,8-diazabicyclo[3.2.1]octan-8-yl) propan-1-ol]
27 | 3200 | COc1ccc(-c2c(C)n(C)c3cnc(-c4ccc(N5CCN(CCC(C)(C)O)CC5)cc4)cc23)cc1OC [Example 33, 4-(4-(4-(3-(3,4-dimethoxyphenyl)-1,2-dimethyl-1H-pyrrolo[2,3-c]pyridin-5-yl)phenyl)piperazin-1-yl)-2-methylbutan-2-ol]
21 | 2900 | COc1ccc(-c2cc3cnc(-c4ccc(N5CCN(CC6CC6)CC5)cc4)cc3n2C)cc1OC [Example 9, 6-(4-(4-(Cyclopropylmethyl)piperazin-1-yl)phenyl)-2-(3,4-dimethoxyphenyl)-1-methyl-1H-pyrrolo[3,2-c]pyridine]
